Measurements taken from patent US20250144250A1, “PH-SENSITIVE FLUOROPHORES” (The General Hospital Corporation, priority 2022, published 2025).

System: peritoneal dissemination of ID8 ovarian cancer
Experiment: Preclinical intraoperative fluorescence-guided surgery
Format: in vivo, mice
Conditions: FGS 4 h post-injection, 20 nmol
Description: Preclinical intraoperative fluorescence-guided surgery: We performed preclinical fluorescence-guided surgery (FGS) in mice with peritoneal dissemination of ID8 ovarian cancer using the FLARE imaging system. We injected 20 nmol of PH08 in 100 μL of 5% wt/v BSA/saline into the mouse intraperitoneally 4 h prior to the surgery. The abdominal cavity was opened with a midline incision under isoflurane inhalational anesthesia. The entire abdominal cavity was examined carefully by a surgeon using color and fluorescent imaging on the FLARE imaging system. Peritoneal dissemination was resected under white light assisted with the color and fluorescent images.
Evaluation of in vivo efficacy of NIR fluorophores for fluorescence-guided surgery (FGS): Having confirmed the pH sensitivity and tumor cell uptake of PH08 in vitro, we next evaluated the in vivo performance of the pH sensing NIR fluorophores in a mouse model of ovarian cancer. […] In this model, approximately 12 week post-peritoneal injection of ID8 cells, numerous nodules were observed on the peritoneum. These small nodules (<1 mm) are extremely difficult to localize and visualize in the surgical field. Thus, this model was suitable to test the performance of this fluorophore. […] The signal of PH08 allowed for clear visualization of the lesions that measured 5 mm or less than 1 mm in diameter. […]

## CCN1/C(=C/C=C2\CCCC(/C=C/C3=[N+](CC)c4ccccc4C3(C)C)=C2N2CCNCC2)C(C)(C)c2ccccc21 [PH08]
  outcome of FGS: complete resection of metastatic nodules
